Test results taken from patent publication US10071095B2, “1,2,4-triazolo [4,3-A] pyridine derivatives and their use for the treatment of neurological and psychiatric disorders” (JANSSEN PHARMACEUTICALS, INC., priority 2009, dated 2018).

biological target: T1, human mGluR2 receptor (Homo sapiens, UniProt Q14416); assay: [35S]GTPγS binding assay, positive allosteric modulation (GTPγS-PAM) in presence of EC20 glutamate; type: biochemical; details: in presence of glutamate at EC20; average pEC50 if more experiments; ‡ means tested once
T1 construct: expressed in transfected cells; host or cells: CHO cells
Method: [^35S]GTPγS Binding Assay
The [^35S]GTPγS binding assay is a functional membrane-based assay used to study G-protein coupled receptor (GPCR) function whereby incorporation of a non-hydrolysable form of GTP, [^35S]GTPγS (guanosine 5′-triphosphate, labelled with […] ^35S), is measured. The G-protein α subunit catalyzes the exchange of guanosine 5′-diphosphate (GDP) by guanosine triphosphate (GTP) and on activation of the GPCR by an agonist, [^35S]GTPγS, becomes incorporated and cannot be cleaved to continue the exchange cycle (Harper (1998) Current Protocols in Pharmacology 2.6.1-10, John Wiley & Sons, Inc.). […] Here we describe the use of the [^35S]GTPγS binding assay using membranes from cells transfected with the human mGluR2 receptor and adapted from Schaffhauser et al. ((2003) Molecular Pharmacology 4:798-810) for the detection of the positive allosteric modulation (PAM) properties of the compounds of this invention.
CHO-cells were cultured to pre-confluence and stimulated with 5 mM butyrate for 24 h, prior to washing in PBS, and then collected by scraping in homogenisation buffer (50 mM Tris-HCl buffer, pH 7.4, 4° C.). Cell lysates were homogenized briefly using an ultra-turrax homogenizer. The homogenate was centrifuged at 16,000 RPM (Sorvall RC-5C plus rotor SS-34) for 10 minutes and the supernatant discarded. The pellet was resuspended in 5 mM Tris-HCl, pH 7.4 and centrifuged again (18,000 RPM, 20 min, 4° C.). The final pellet was resuspended in 50 mM Tris-HCl, pH 7.4 and stored at −80° C. in appropriate aliquots before use. Protein concentration was determined by the Bradford method (Bio-Rad, USA) with bovine serum albumin as standard.
Measurement of mGluR2 positive allosteric modulatory activity of test compounds was performed as follows. Test compounds and glutamate were diluted in assay buffer containing 10 mM HEPES acid, 10 mM HEPES salt, pH 7.4, 100 mM NaCl, 3 mM MgCl2 and 10 μM GDP. Human mGlu2 receptor-containing membranes were thawed on ice and diluted in assay buffer supplemented with 14 μg/ml saponin. Membranes were pre-incubated with compound alone or together with a predefined (˜EC20) concentration of glutamate (PAM assay) for 30 min at 30° C. After addition of [^35S]GTPγS (f.c. 0.1 nM) microplates were shaken briefly and further incubated to allow [^35S]GTPγS incorporation on activation (30 minutes, 30° C.). Final assay mixtures contained 7 μg of membrane protein in 10 mM HEPES acid, 10 mM HEPES salt, pH 7.4, 100 mM NaCl, 3 mM MgCl2, 10 µM GDP and 10 μg/ml saponin. Total reaction volume was 200 μl. Reactions were terminated by rapid filtration through Unifilter-96 GF/B filter plates (Packard, Meriden, Conn.) using a 96-well Packard filtermate harvester. Filters were washed 6 times with ice-cold 10 mM NaH2PO4/10 mM Na2HPO4, pH 7.4. Filters were then air-dried, and 40 μl of liquid scintillation cocktail (Microscint-O) was added to each well. Membrane-bound radioactivity was counted in a Microplate Scintillation and Luminescence Counter from Packard.
The concentration-response curves of representative compounds of the present invention-obtained in the presence of EC20 of mGluR2 agonist glutamate to determine positive allosteric modulation (PAM)—were generated using the Lexis software interface (developed at J&J).

T1 sequence (Q14416 19-872): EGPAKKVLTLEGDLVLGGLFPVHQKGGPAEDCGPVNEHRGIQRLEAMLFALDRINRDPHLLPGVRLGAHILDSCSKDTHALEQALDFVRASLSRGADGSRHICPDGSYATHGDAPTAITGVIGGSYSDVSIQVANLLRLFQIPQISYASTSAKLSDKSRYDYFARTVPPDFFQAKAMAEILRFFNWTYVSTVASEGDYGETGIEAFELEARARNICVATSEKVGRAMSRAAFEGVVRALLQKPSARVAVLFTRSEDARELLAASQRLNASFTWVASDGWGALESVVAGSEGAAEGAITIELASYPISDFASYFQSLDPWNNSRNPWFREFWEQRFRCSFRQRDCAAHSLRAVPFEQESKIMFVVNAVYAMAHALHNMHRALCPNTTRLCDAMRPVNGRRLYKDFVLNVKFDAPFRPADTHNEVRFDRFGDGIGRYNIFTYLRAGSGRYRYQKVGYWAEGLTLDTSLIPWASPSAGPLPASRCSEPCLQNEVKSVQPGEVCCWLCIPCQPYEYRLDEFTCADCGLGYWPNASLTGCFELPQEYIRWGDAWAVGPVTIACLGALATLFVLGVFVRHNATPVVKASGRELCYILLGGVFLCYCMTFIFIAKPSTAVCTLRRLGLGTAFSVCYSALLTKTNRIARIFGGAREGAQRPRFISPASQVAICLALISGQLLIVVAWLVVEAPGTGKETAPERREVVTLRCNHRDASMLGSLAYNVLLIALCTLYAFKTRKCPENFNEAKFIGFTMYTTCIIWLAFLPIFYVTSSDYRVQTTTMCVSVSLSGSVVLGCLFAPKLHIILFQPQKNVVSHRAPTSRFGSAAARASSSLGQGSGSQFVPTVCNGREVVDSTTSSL

GTPγS - hR2 PAM pEC50	SMILES
7.05	FC(F)(F)c1c(N2CC3C(C2)C3c2ccccc2)ccn2c(CC3CC3)nnc12 (racemic) [compound 75]
6.85	FC(F)(F)Cc1nnc2c(Cl)c(N3CC4C(C3)C4c3ccccc3)ccn12 (racemic) [compound 81]
6.42‡	CCc1nnc2c(C)c(N3CC4C(C3)C4c3ccccc3)ccn12 (racemic) [compound 335]
7.42‡	CCCCc1nnc2c(C(F)(F)F)c(N3CC4C(C3)C4c3ccccc3)ccn12 (racemic) [compound 338]
7.06	CC1CN(c2ccn3c(CC4CC4)nnc3c2Cl)CCC1c1ccccc1 (single isomer, unassigned) [compound 208]
7.44	CC1CN(c2ccn3c(CC4CC4)nnc3c2Cl)CCC1c1ccccc1 (single isomer, unassigned) [compound 211]
8.08	CC1CN(c2ccn3c(CC4CC4)nnc3c2C(F)(F)F)CCC1c1ccccc1 (single isomer, unassigned) [compound 212]
7.41	FC(F)(F)c1c(N2CCC(F)(c3ccccc3)CC2)ccn2c(CC3CC3)nnc12 [compound 2, 3-Cyclopropylmethyl-7-(4-fluoro-4-phenyl-1-piperidinyl)-8-(trifluoromethyl)-1,2,4-triazolo[4,3-a]pyridine]
7.62	CCCCc1nnc2c(C(F)(F)F)c(N3CCC(c4ccccc4)CC3)ccn12 [compound 4, 3-Butyl-7-(4-phenyl-1-piperidinyl)-8-trifluoromethyl-1,2,4-triazolo[4,3-a]pyridine]
6.16	CCc1nnc2c(C#N)c(N3CCC(c4ccccc4)CC3)ccn12 [compound 10, 3-ethyl-7-(4-phenyl-1-piperidinyl)-1,2,4-triazolo[4,3-a]pyridine-8-carbonitrile]
7.13	N#Cc1c(N2CCC(c3ccccc3)CC2)ccn2c(CC3CC3)nnc12 [compound 13, 3-(cyclopropylmethyl)-7-(4-phenyl-1-piperidinyl)-1,2,4-triazolo[4,3-a]pyridine-8-carbonitrile]
7.25	N#Cc1c(N2CCC(c3ccccc3)CC2)ccn2c(CC(F)(F)F)nnc12 [compound 20]
6.61	CCc1nnc2c(C#N)c(N3CCC(c4cccc(F)c4OC)CC3)ccn12 [compound 21]
7.26	FC(F)(F)Cc1nnc2c(Cl)c(N3CCC(c4ccccc4)CC3)ccn12 [compound 22]
6.98	CCCc1nnc2c(C#N)c(N3CCC(c4cccc(F)c4OC)CC3)ccn12 [compound 23]
6.33‡	COCc1nnc2c(C#N)c(N3CCC(c4ccccc4)CC3)ccn12 [compound 24]
6.42	CCc1nnc2c(Cl)c(N3CCC(c4ccccc4)CC3)ccn12 [compound 25]
7.51	COc1c(F)cccc1C1CCN(c2ccn3c(CC(F)(F)F)nnc3c2C#N)CC1 [compound 27]
6.53	CCCc1nnc2c(C#N)c(N3CCC(c4ccccc4)CC3)ccn12 [compound 28]
6.27	N#Cc1c(N2CCC(c3ccccc3)CC2)ccn2c(C3(C(F)(F)F)CC3)nnc12 [compound 31]
7.03	N#Cc1c(N2CCC(c3ccccc3)CC2)ccn2c(COCc3ccccc3)nnc12 [compound 32]
5.15‡	CC(F)(F)c1nnc2c(C#N)c(N3CCC(c4ccccc4)CC3)ccn12 [compound 33]

GTPγS - hR2 PAM pEC50	SMILES
7.35	N#Cc1c(N2CCC(c3ccccc3)CC2)ccn2c(CC3CCC3)nnc12 [compound 34]
5.91	CC(C)(C)c1nnc2c(C#N)c(N3CCC(c4ccccc4)CC3)ccn12 [compound 35]
5.95‡	N#Cc1c(N2CCC(c3ccccc3)CC2)ccn2c(CN3CCCC3)nnc12 [compound 36]
6.51	N#Cc1c(N2CCC(c3ccccc3)CC2)ccn2c(CN3CCC(C(F)(F)F)CC3)nnc12 [compound 37]
7.74	FC(F)(F)Cc1nnc2c(C(F)(F)F)c(N3CCC(c4ccccc4)CC3)ccn12 [compound 38]
7.52	FC(F)(F)c1cccc(C2CCN(c3ccn4c(CC5CC5)nnc4c3Cl)CC2)c1 [compound 39]
6.67	N#Cc1c(N2CCC(F)(c3ccccc3)CC2)ccn2c(CC3CC3)nnc12 [compound 40]
6.83	FC1(c2ccccc2)CCN(c2ccn3c(CC4CC4)nnc3c2Cl)CC1 [compound 42]
6.07‡	N#Cc1c(N2CCN(C3CCC(C(F)(F)F)CC3)CC2)ccn2c(CC3CC3)nnc12 (stereo not shown) [compound 45]
6.9‡	Cc1cccnc1OC1CCN(c2ccn3c(CC4CC4)nnc3c2Cl)CC1 [compound 48]
8.35‡	COc1cccc(F)c1C1CCN(c2ccn3c(CC(F)(F)F)nnc3c2C#N)CC1 [compound 51]
6.98‡	N#Cc1c(N2CCN(Cc3ccc(OCC4CC4)c(Cl)c3)CC2)ccn2c(CC(F)(F)F)nnc12 [compound 52]
6.95	N#Cc1c(N2CCC(F)(c3ccccc3)CC2)ccn2c(CC(F)(F)F)nnc12 [compound 54]
8.22	COc1cccc(F)c1C1CCN(c2ccn3c(CC4CC4)nnc3c2Cl)CC1 [compound 55]
6.02‡	FC(F)(F)Cc1nnc2c(Cl)c(N3CCC(c4ccccn4)CC3)ccn12 [compound 56]
8.16‡	COc1cccc(F)c1C1CCN(c2ccn3c(CC4CC4)nnc3c2C#N)CC1 [compound 57]
6.23	N#Cc1c(N2CCN(C3CCC(C(F)(F)F)CC3)CC2)ccn2c(CC(F)(F)F)nnc12 (stereo not shown) [compound 58]
7.17	Cc1cccnc1OC1CCN(c2ccn3c(CC(F)(F)F)nnc3c2Cl)CC1 [compound 59]
6.33	N#Cc1c(N2CCN(Cc3cccc(C(F)(F)F)c3)CC2)ccn2c(CC(F)(F)F)nnc12 [compound 60]
7.98	COc1ccc(F)cc1C1CCN(c2ccn3c(CC(F)(F)F)nnc3c2Cl)CC1 [compound 61]
6.41	FC(F)(F)c1c(N2CCC(c3ccccc3)(N3CCOCC3)CC2)ccn2c(CC3CC3)nnc12 [compound 62]
6.08	FC(F)(F)Cc1nnc2c(Cl)c(N3CCN(c4ncccn4)CC3)ccn12 [compound 63]

same assay, conditions: in presence of glutamate at EC20; average pEC50 if more experiments; ‡ means tested once; read-out: GTPγS - hR2 PAM pEC50 (converted)

EC50 [µM]	SMILES
0.132	CCOCc1nnc2c(Cl)c(N3CCC(c4ccccc4)CC3)ccn12 [compound 5, 8-Chloro-3-(ethoxymethyl)-7-(4-phenyl-1-piperidinyl)-1,2,4-triazolo[4,3-a]pyridine]
0.0398	CC(C)(O)c1ccccc1C1CCN(c2ccn3c(CC4CC4)nnc3c2Cl)CC1 [compound 7, 2-[1-[8-Chloro-3-(cyclopropylmethyl)-1,2,4-triazolo[4,3-a]pyridin-7-yl]-4-piperidinyl]-α,α-dimethyl-benzenemethanol]
0.269	CC(C)Cc1nnc2c(Cl)c(N3CCC(c4ccccc4)CC3)ccn12 [compound 9, 8-Chloro-3-(2-methylpropyl)-7-(4-phenyl-1-piperidinyl)-1,2,4-triazolo[4,3-a]pyridine]
0.0468	N#Cc1c(N2CCC(c3ccccc3)CC2)ccn2c(CN3CCC(c4ccccc4)CC3)nnc12 [compound 12, 7-(4-phenyl-1-piperidinyl)-3-[(4-phenyl-1-piperidinyl)methyl]-1,2,4triazolo[4,3-a]pyridine-8-carbonitrile]
0.427	N#Cc1c(N2CCC(c3ccccc3)CC2)ccn2c(C3CCC3)nnc12 [compound 14, 3-Cyclobutyl-7-(4-phenyl-1-piperidinyl)-1,2,4-triazolo[4,3-a]pyridine-8-carbonitrile]
